# From US20250034185A1 (priority 2021, published 2025)
# System: plasma enzymes
# Conditions: not given
# Wherever P5P formed is given: test concentration or dose not given here.
row,SMILES,stability in DMSO (stock solution)
1,"Cc1ncc(COP(=O)(N[C@@H](C)C(=O)Oc2ccc3ccccc3c2)Oc2ccccc2)c(C=O)c1O (stereo partly drawn) [Compound 16xiv, (2S)-Naphthalen-2-yl 2-(((4-formyl-5-hydroxy-6-methylpyridin-3-yl)methoxy)(phenoxy)phosphorylamino)propanoate]",unstable in DMSO
2,"Cc1ncc(COP(=O)(NCC(=O)OC(C)C)Oc2ccccc2)c(C=O)c1O (stereo not drawn) [Compound 16xv, Isopropyl 2-(((4-formyl-5-hydroxy-6-methylpyridin-3-yl)methoxy)(phenoxy)phosphorylamino)acetate]",unstable in DMSO

# Same assay, conditions: Sprague Dawley, rat
SMILES,P5P formed,relative P5P formed
"Cc1ncc(COP(=O)(N[C@@H](C)C(=O)OC(C)C)Oc2ccccc2)c(CO)c1OC(=O)c1ccccc1 (stereo partly drawn) [Compound 15xvii, (2S)-Isopropyl 2-(((5-benzoyloxy-4-(hydroxymethyl)-6-methylpyridin-3-yl)methoxy)(phenoxy)phosphorylamino)propanoate]",0.3 µM,8.3%
[2H]C([2H])([2H])c1ncc(C([2H])([2H])OP(=O)(N[C@@H](C)C(=O)OC(C)C)Oc2ccccc2)c(CO)c1O (stereo partly drawn) [Compound 15xxxi],0.5 µM,20.0%
CCC(CC)COC(=O)[C@H](C)NP(=O)(OCc1cnc(C)c(O)c1CO)Oc1ccccc1 (stereo partly drawn) [Compound 15xxxiv],0 µM,0.0%
"Cc1ncc(COP(=O)(N[C@@H](C)C(=O)OC(C)C)Oc2cccc3ccccc23)c(C=O)c1O (stereo partly drawn) [Compound 16iv, (2S)-Isopropyl 2-(((4-formyl-5-hydroxy-6-methylpyridin-3-yl)methoxy)(naphthalen-1-yloxy)phosphorylamino)propanoate]",1.8 µM,47.4%
"Cc1ncc(COP(=O)(N[C@@H](C)C(=O)OCc2ccccc2)Oc2ccccc2)c(C=O)c1O (stereo partly drawn) [Compound 16ix, (2S)-Benzyl 2-(((4-formyl-5-hydroxy-6-methylpyridin-3-yl)methoxy)(phenoxy)phosphorylamino)propanoate]",10.3 µM,98.1%
"Cc1ncc(COP(=O)(N[C@@H](C)C(=O)OCC2CCCC2)Oc2ccccc2)c(C=O)c1O (stereo partly drawn) [Compound 16x, (2S)-Cyclopentylmethyl 2-(((4-formyl-5-hydroxy-6-methylpyridin-3-yl)methoxy)(phenoxy)phosphorylamino)propanoate]",1.95 µM,121.9%
"Cc1ncc(COP(=O)(N[C@@H](C)C(=O)Oc2ccc(Cl)cc2)Oc2ccccc2)c(C=O)c1O (stereo partly drawn) [Compound 16xL, (2S)-4-Chlorophenyl 2-(((4-formyl-5-hydroxy-6-methylpyridin-3-yl)methoxy)(phenoxy)phosphorylamino)propanoate]",3.6 µM,171.4%
"Cc1ncc(COP(=O)(NC(CC(F)(F)F)C(=O)OC(C)C)Oc2ccccc2)c(C=O)c1O (stereo not drawn) [Compound 16xi, Isopropyl 4,4,4-trifluoro-2-(((4-formyl-5-hydroxy-6-methylpyridin-3-yl)methoxy)(phenoxy)phosphorylamino)butanoate]",0.6 µM,15.8%
"Cc1ncc(COP(=O)(N[C@@H](Cc2cn(C(=O)OC(C)(C)C)c3ccccc23)C(=O)OC(C)C)Oc2ccccc2)c(C=O)c1O (stereo partly drawn) [Compound 16xiii, Tert-butyl 3-((2S)-2-(((4-formyl-5-hydroxy-6-methylpyridin-3-yl)methoxy)(phenoxy)phosphorylamino)-3-isopropoxy-3-oxopropyl)-1H-indole-1-carboxylate]",0.3 µM,7.9%
[2H]c1c([2H])c([2H])c(OP(=O)(N[C@@H](C)C(=O)OC(C)C)OCc2cnc(C)c(O)c2C=O)c([2H])c1[2H] (stereo partly drawn) [Compound 16xx],1.4 µM,38.9%
[2H]C([2H])([2H])C([2H])(OC(=O)[C@H](C)NP(=O)(OCc1cnc(C)c(O)c1C=O)Oc1ccccc1)C([2H])([2H])[2H] (stereo partly drawn) [Compound 16xxi],0.3 µM,17.6%
